Test results published in patent US20240327354A1, “GRAM-NEGATIVE BACTERIA EFFLUX PUMP INHIBITORS” (INSTITUT NATIONAL DE LA SANTÉ ET DE LA RECHERCHE MÉDICALE, priority 2021, published 2024).

What was measured:
K. pneumoniae ATCC43816 = assay: Assay 4: boosting of antibiotic activity by EPI example 37 in K. pneumoniae ATCC43816; assay type: cell-based, Klebsiella pneumoniae; settings: MIC of the named antibiotic boosted by 100 μM example 37
From the text: (§1) Escherichia coli BW25113 (CGSC 7636) and its derivatives E. coli ΔtolC (JW5503-1, ΔtolC732::kan, CGSC 11430), E. coli ΔacrA (JW0452-3, ΔacrA748::kan, CGSC 11843) and E. coli ΔacrB (JW0451-2, ΔacrB747::kan, CGSC 8609) were obtained from E. coli Genetic Stock Center (CGSC, New Haven, Connecticut) and originated from the Keio Collection (Baba T et al, Mol Sys Biol, 2006). Klebsiella pneumoniae (LMG 2095/ATCC 13883) and K. pneumoniae (ATCC43816), Pseudomonas aeruginosa (PAO1), Acinetobacter baumannii (LMG 1025, ATCC 17978), were obtained from ATCC or BCCM/LMG Bacteria Collection. All bacteria were grown and tested in cation-adjusted Mueller-Hinton broth (CAMHB; BD Difco) at 37° C. For conservation, log phase bacteria were frozen (−80° C.) in CAMHB supplemented with 15% glycerol.
(§2) Measurement of the Impact of EPI Example 37 on the Boosting of Antibiotic Activity in E. coli, A. baumannii, K. pneumoniae and P. aeruginosa.
(§3) Bacterial suspensions were then prepared in CAMHB from a growing pre-culture, (E. coli [OD600=0.001], A. baumannii [OD600=0.001], K. pneumoniae [OD600=0.001] and P. aeruginosa [OD600=0.001]), and added to the microplate using a ViaFill. Microplate containing bacterial cultures were then grown (5 h or 24 h, 37° C.) and bacterial viability determined by either resazurin reduction or OD600.

K. pneumoniae ATCC13883 = assay: Assay 4: boosting of antibiotic activity by EPI example 37 in K. pneumoniae ATCC13883; assay type: cell-based, Klebsiella pneumoniae; settings: MIC of the named antibiotic boosted by 100 μM example 37
From the text: as §1, §2, §3

P. aeruginosa PAO1 = assay: Assay 4: boosting of antibiotic activity by EPI example 37 in P. aeruginosa; assay type: cell-based, Pseudomonas aeruginosa; settings: MIC of the named antibiotic boosted by 100 μM example 37
From the text: as §1, §2, §3

E. coli BW25113 = assay: Assay 4: boosting of antibiotic activity by EPI example 37 in E. coli; assay type: cell-based, Escherichia coli; settings: MIC of the named antibiotic boosted by 100 μM example 37
From the text: as §1, §2, §3

A. baumannii LMG = assay: Assay 4: boosting of antibiotic activity by EPI example 37 in A. baumannii; assay type: cell-based, Acinetobacter baumannii; settings: MIC of the named antibiotic boosted by 100 μM example 37
From the text: as §1, §2, §3

[1] = tested on: A. baumannii LMG 1025 (ATCC 17978); assay: Assay 2: growth inhibition of A. baumannii by sub-inhibitory chloramphenicol in combination with examples (resazurin reduction); assay type: cell-based; settings: Acinetobacter baumannii; antibiotic alone, no EPI
[2] = tested on: A. baumannii LMG 1025 (ATCC 17978); assay: Assay 3: growth inhibition of A. baumannii by sub-inhibitory novobiocin in combination with examples (resazurin reduction); assay type: cell-based; settings: Acinetobacter baumannii; antibiotic alone, no EPI

| SMILES | K. pneumoniae ATCC43816 Fold Boosted MIC By 100 μM example 37 (K. pneumoniae ATCC43816) | K. pneumoniae ATCC13883 Fold Boosted MIC By 100 μM example 37 (K. pneumoniae ATCC13883) | P. aeruginosa PAO1 Fold Boosted MIC By 100 μM example 37 (P. aeruginosa PAO1) | E. coli BW25113 Fold Boosted MIC By 100 μM example 37 (E. coli BW25113) | A. baumannii LMG Fold Boosted MIC By 100 μM example 37 (A. baumannii LMG) | MIC90 [1] | MIC90 [2] |
| --- | --- | --- | --- | --- | --- | --- | --- |
| CC[C@H]1OC(=O)[C@H](C)[C@@H](O[C@H]2C[C@@](C)(OC)[C@@H](O)[C@H](C)O2)[C@H](C)[C@@H](O[C@@H]2O[C@H](C)C[C@H](N(C)C)[C@H]2O)[C@](C)(O)C[C@@H](C)CN(C)[C@H](C)[C@@H](O)[C@]1(C)O [Azithromycin (AZY), Azithromycin] | ** (** = 4-7.9 fold) | ** (** = 4-7.9 fold) | *** (*** = 8 fold +) | – | – | – | – |
| CC(=O)NC[C@H]1CN(c2ccc(N3CCOCC3)c(F)c2)C(=O)O1 [Linezolid (LIN), Linezolid] | *** (*** = 8 fold +) | *** (*** = 8 fold +) | * (* = 2-3.9 fold) | *** (*** = 8 fold +) | * (* = 2-3.9 fold) | – | – |
| Cc1onc(-c2ccccc2)c1C(=O)N[C@@H]1C(=O)N2[C@@H]1SC(C)(C)[C@@H]2C(=O)O [Oxacillin (OXA), Oxacillin] | *** (*** = 8 fold +) | *** (*** = 8 fold +) | * (* = 2-3.9 fold) | *** (*** = 8 fold +) | – | – | – |
| CCN1CCN(C(=O)N[C@@H](C(=O)N[C@@H]2C(=O)N3[C@@H]2SC(C)(C)[C@@H]3C(=O)O)c2ccccc2)C(=O)C1=O [Piperacillin (PPC), Piperacillin] | * (* = 2-3.9 fold) | * (* = 2-3.9 fold) | – | ** (** = 4-7.9 fold) | – | – | – |
| [H]/N=C(/N)N[C@H]1[C@H](O)[C@@H](O)[C@H](O[C@@H]2O[C@@H](C)[C@](O)(C=O)[C@H]2O[C@@H]2O[C@@H](CO)[C@H](O)[C@@H](O)[C@@H]2NC)[C@@H](N/C(N)=N\[H])[C@@H]1O [Streptomycin (STP), Streptomycin] | – | – | * (* = 2-3.9 fold) | – | – | – | – |
| Oc1cc(Cl)ccc1Oc1ccc(Cl)cc1Cl [Triclosan (TRC), Triclosan] | *** (*** = 8 fold +) | *** (*** = 8 fold +) | – | * (* = 2-3.9 fold) | * (* = 2-3.9 fold) | – | – |
| O=C(N[C@H](CO)[C@H](O)c1ccc([N+](=O)[O-])cc1)C(Cl)Cl [chloramphenicol] | * (* = 2-3.9 fold) | ** (** = 4-7.9 fold) | – | *** (*** = 8 fold +) | * (* = 2-3.9 fold) | 25 to 100 µg/mL | – |
| CO[C@@H]1[C@@H](OC(N)=O)[C@@H](O)[C@H](Oc2ccc3c(O)c(NC(=O)c4ccc(O)c(CC=C(C)C)c4)c(=O)oc3c2C)OC1(C)C [novobiocin] | ** (** = 4-7.9 fold) | *** (*** = 8 fold +) | – | *** (*** = 8 fold +) | – | – | 12.5 µg/mL |
